Reference: ChEMBL document CHEMBL3885861, “Open TG-GATES”

Species on record: Rattus norvegicus
Assay: Open TG-GATES - Regimen: Daily Repeat
Format: toxicity, organism-based, Sprague-Dawley
Parameters: regimen Daily Repeat, gender Male, age 6 weeks
Settings: in vivo, sc, 0.2 mg/kg, […], route subcutaneous injection, dose 200 ug/Kg, dose level High; for KIDNEY_L / KIDNEY_R / KIDNEY_TOTAL: tissue Kidney; for LIVER: tissue Liver; for A/G / ALP / ALT / AST / BUN / CRE / Ca / Cl / DBIL / GLC / IP / K / LDH / Na / PL / RALB / TBIL / TC / TG / TP / gamma-GTP: tissue Plasma

CC(=O)O.N=C(N)NCCC[C@@H](NC(=O)[C@@H]1CCCN1C(=O)[C@@H]1CSSCCC(=O)N[C@@H](Cc2ccc(O)cc2)C(=O)N[C@@H](Cc2ccccc2)C(=O)N[C@@H](CCC(N)=O)C(=O)N[C@@H](CC(N)=O)C(=O)N1)C(=O)NCC(N)=O [DESMOPRESSIN ACETATE]
Lym (tissue Blood, time 28 day): 80.4% | MCH (tissue Blood, time 28 day): 18.8 pg | MCHC (tissue Blood, time 28 day): 32.8% | MCV (tissue Blood, time 28 day): 57.4 fL | Mono (tissue Blood, time 28 day): 6.4% | Neu (tissue Blood, time 28 day): 11.8% | PT (tissue Blood, time 28 day): 12.2 s | Plat (tissue Blood, time 28 day): 112.2 x10_4/uL | RBC (tissue Blood, time 28 day): 795.2 x10_4/ul | Ret (tissue Blood, time 28 day): 3.1% | WBC (tissue Blood, time 28 day): 95 x10_2/uL | KIDNEY_L (time 7 day): 1.3 g | KIDNEY_R (time 7 day): 1.3 g | KIDNEY_TOTAL (time 7 day): 2.6 g | KIDNEY_L (time 14 day): 1.5 g | KIDNEY_R (time 14 day): 1.5 g | KIDNEY_TOTAL (time 14 day): 3 g | KIDNEY_L (time 28 day): 1.8 g | KIDNEY_R (time 28 day): 1.8 g | KIDNEY_TOTAL (time 28 day): 3.6 g | LIVER (time 7 day): 11.3 g | LIVER (time 14 day): 13.6 g | LIVER (time 28 day): 14.7 g | A/G (time 7 day): 2 | ALP (time 7 day): 1056 IU/L | ALT (time 7 day): 30.2 IU/L | AST (time 7 day): 67.6 IU/L | BUN (time 7 day): 21.2 mg/dL | CRE (time 7 day): 0.4 mg/dL | Ca (time 7 day): 13.2 mg/dL | Cl (time 7 day): 98.8 meq/L | DBIL (time 7 day): 0.014 mg/dL | GLC (time 7 day): 200.8 mg/dL | IP (time 7 day): 7.4 mg/dL | K (time 7 day): 4.8 meq/L | LDH (time 7 day): 169.6 IU/L | Na (time 7 day): 129.8 meq/L | PL (time 7 day): 130 mg/dL | RALB (time 7 day): 3.6 g/dL | TBIL (time 7 day): 0.042 mg/dL | TC (time 7 day): 71.4 mg/dL | TG (time 7 day): 90.2 mg/dL | TP (time 7 day): 5.5 g/dL | gamma-GTP (time 7 day): 1 IU/L | A/G (time 14 day): 1.9 | ALP (time 14 day): 1196.4 IU/L | ALT (time 14 day): 31.8 IU/L | AST (time 14 day): 69.2 IU/L | BUN (time 14 day): 20.8 mg/dL | CRE (time 14 day): 0.4 mg/dL | Ca (time 14 day): 10.7 mg/dL | Cl (time 14 day): 105.6 meq/L | DBIL (time 14 day): 0.014 mg/dL | GLC (time 14 day): 207 mg/dL | IP (time 14 day): 7.5 mg/dL | K (time 14 day): 5 meq/L | LDH (time 14 day): 125.6 IU/L | Na (time 14 day): 138.6 meq/L | PL (time 14 day): 150.8 mg/dL | RALB (time 14 day): 3.7 g/dL | TBIL (time 14 day): 0.038 mg/dL | TC (time 14 day): 75.6 mg/dL | TG (time 14 day): 119.8 mg/dL | TP (time 14 day): 5.7 g/dL | gamma-GTP (time 14 day): 1 IU/L | A/G (time 28 day): 1.6 | ALP (time 28 day): 872.6 IU/L | ALT (time 28 day): 28 IU/L | AST (time 28 day): 62.8 IU/L | BUN (time 28 day): 22 mg/dL | CRE (time 28 day): 0.4 mg/dL | Ca (time 28 day): 9.2 mg/dL | Cl (time 28 day): 105.6 meq/L | DBIL (time 28 day): 0.01 mg/dL | GLC (time 28 day): 182.8 mg/dL | IP (time 28 day): 6.5 mg/dL | K (time 28 day): 4.8 meq/L | LDH (time 28 day): 160 IU/L | Na (time 28 day): 138.4 meq/L | PL (time 28 day): 153.2 mg/dL | RALB (time 28 day): 3.8 g/dL | TBIL (time 28 day): 0.046 mg/dL | TC (time 28 day): 88.4 mg/dL | TG (time 28 day): 117.6 mg/dL | TP (time 28 day): 6.1 g/dL | gamma-GTP (time 28 day): 0.6 IU/L
